The text below walks through data of ChEMBL document CHEMBL5385920, “Discovery of P450-Modified Sesquiterpenoids Levinoids A-D through Global Genome Mining” (J Nat Prod, 2024).

Experiment [1] relates to HT-22. Put plainly: Neuroprotective activity against glutamate-induced cytotoxicity in HT-22 cells assessed as increase in cell viability at 10 ug/ml measured after 24 hrs in presence of glutamate by CCK8 assay. The format is functional, cell-based. The note with it: Mus musculus, dose 10.0 µg/ml. (In general: Formazan colour is commonly taken as a measure of viable cells.)

Experiment [2] has as its system HT-22. Put plainly: Neuroprotective activity against glutamate-induced cytotoxicity in HT-22 cells assessed as increase in cell viability measured after 24 hrs in presence of glutamate by CCK8 assay. The note with it: Mus musculus, HT-22, 24 h. The format is functional, cell-based.
Experiment [3] has as its system HT-22. Put plainly: Neuroprotective activity against glutamate-induced cytotoxicity in HT-22 cells assessed as increase in cell viability at 10 ug/ml measured after 24 hrs in presence of glutamate by CCK8 assay relative to control. The format is functional, Mus musculus. The following applies: dose 10 µg/ml.

Activity calls are given as the source filed them. No cut-off for these calls is given here.

As for `CC1=CC[C@@H](C(C)C)[C@@]2(O)C=C(C(=O)O)CC[C@@H]12`, the outcome in experiment [1] was inactive.

In general, EC50 refers to the midpoint of the concentration-response curve. Consider `CC1=CC[C@@H](C(C)C)[C@H]2C=C(C(=O)O)CC[C@@]12O`, for which the EC50 in experiment [2] is ~21 µM. Further, the Activity in experiment [3] worked out at 82%.

`CC1=CC[C@@H](C(C)C)[C@H]2C=C(C(=O)O)[C@@H](O)C[C@@H]12`: the outcome in experiment [1] was inactive.

With `CC1=CC[C@@H](C(C)C)[C@H]2C=C(C(=O)O)CC[C@@H]12`, the result in experiment [1] was inactive.
